Results taken from publication PMC9234961 (Journal of Medicinal Chemistry, 2022).
Read-outs that look alike come from different tables or passages of the source.

Assays:
kinases (468) [1] = target: kinases (468) (Homo sapiens, UniProt Q9Y2H9); details: MAST1; 1000 nM
kinases (468) [2] = target: kinases (468) (Homo sapiens, UniProt P11362); details: FGFR1; 1000 nM
kinases (468) [3] = target: kinases (468) (Plasmodium falciparum, UniProt P61075); details: PFPK5(P.falciparum) (MAL13P1.279); 1000 nM
kinases (468) [4] = target: kinases (468) (Homo sapiens, UniProt P36888, D835V); details: FLT3(D835V); 1000 nM
kinases (468) [5] = target: kinases (468) (Homo sapiens, UniProt P36507); details: MEK2 (MAP2K2); 1000 nM
kinases (468) [6] = target: kinases (468) (Homo sapiens, UniProt Q13131); details: AMPK-alpha1 (PRKAA1); 1000 nM
kinases (468) [7] = target: kinases (468) (Homo sapiens, UniProt P45983); details: JNK1 (MAPK8); 1000 nM
kinases (468) [8] = target: kinases (468) (Homo sapiens, UniProt Q13188); details: MST2 (STK3); 1000 nM
kinases (468) [9] = target: kinases (468) (Homo sapiens, UniProt P42336, M1043I); details: PIK3CA(M1043I); 1000 nM
kinases (468) [10] = target: kinases (468) (Homo sapiens, UniProt P36888, R834Q); details: FLT3(R834Q); 1000 nM
kinases (468) [11] = target: kinases (468) (Homo sapiens, UniProt P57059); details: kinase SIK (Entrez SIK1); compound concentration 1000 nM
kinases (468) [12] = target: kinases (468) (Homo sapiens, UniProt Q9UM73, C1156Y); details: ALK(C1156Y); 1000 nM
kinases (468) [13] = target: kinases (468) (Homo sapiens, UniProt O15111); details: IKK-alpha (CHUK); 1000 nM
kinases (468) [14] = target: kinases (468) (Homo sapiens, UniProt P54646); details: AMPK-alpha2 (PRKAA2); 1000 nM
kinases (468) (Homo sapiens, UniProt P54646), sequence (P54646 whole entry): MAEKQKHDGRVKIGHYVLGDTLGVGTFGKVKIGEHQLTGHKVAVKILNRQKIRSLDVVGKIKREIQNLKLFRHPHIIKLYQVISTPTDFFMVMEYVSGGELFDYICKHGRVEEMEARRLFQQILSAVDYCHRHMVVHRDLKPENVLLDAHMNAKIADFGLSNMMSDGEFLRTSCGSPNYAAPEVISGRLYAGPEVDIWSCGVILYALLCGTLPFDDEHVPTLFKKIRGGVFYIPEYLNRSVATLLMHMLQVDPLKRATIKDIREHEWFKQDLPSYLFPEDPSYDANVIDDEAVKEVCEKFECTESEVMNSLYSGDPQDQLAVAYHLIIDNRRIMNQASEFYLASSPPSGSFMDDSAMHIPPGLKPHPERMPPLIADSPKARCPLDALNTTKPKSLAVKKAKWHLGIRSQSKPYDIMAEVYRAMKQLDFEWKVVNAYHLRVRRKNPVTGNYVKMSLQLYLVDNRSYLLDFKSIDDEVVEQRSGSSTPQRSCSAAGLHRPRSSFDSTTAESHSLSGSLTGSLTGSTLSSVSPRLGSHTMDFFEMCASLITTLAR

kinases (468) [15] = target: kinases (468) (Homo sapiens, UniProt Q9UQ88); details: CDC2L2; 1000 nM
kinases (468) [16] = target: kinases (468) (Homo sapiens, UniProt P53778); details: p38-gamma (MAPK12); 1000 nM
kinases (468) [17] = target: kinases (468) (Homo sapiens, UniProt Q9P1W9); details: PIM2; 1000 nM
kinases (468) (Homo sapiens, UniProt Q9P1W9), sequence (Q9P1W9 whole entry): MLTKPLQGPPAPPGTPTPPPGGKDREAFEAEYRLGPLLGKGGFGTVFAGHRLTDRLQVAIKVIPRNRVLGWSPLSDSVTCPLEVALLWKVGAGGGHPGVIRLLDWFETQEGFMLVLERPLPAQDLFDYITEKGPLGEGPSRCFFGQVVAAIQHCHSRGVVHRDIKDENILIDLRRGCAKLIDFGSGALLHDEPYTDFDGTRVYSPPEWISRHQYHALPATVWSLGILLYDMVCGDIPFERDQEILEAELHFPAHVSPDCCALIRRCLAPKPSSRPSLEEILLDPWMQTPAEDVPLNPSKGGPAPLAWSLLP

kinases (468) [18] = target: kinases (468) (Homo sapiens, UniProt P06213); details: INSR; 1000 nM
kinases (468) [19] = target: kinases (468) (Homo sapiens, UniProt Q9H2K8); details: kinase TAOK3 (Entrez TAOK3); compound concentration 1000 nM
kinases (468) [20] = target: kinases (468) (Homo sapiens, UniProt Q9P286); details: PAK7; 1000 nM
kinases (468) [21] = target: kinases (468) (Homo sapiens, UniProt P17612); details: PKAC-alpha (PRKACA); 1000 nM
kinases (468) [22] = target: kinases (468) (Homo sapiens, UniProt Q9HBY8); details: kinase SGK2 (Entrez SGK2); compound concentration 1000 nM
kinases (468) [23] = target: kinases (468) (Homo sapiens, UniProt Q8WU08); details: kinase YANK1 (Entrez STK32A); compound concentration 1000 nM
kinases (468) [24] = target: kinases (468) (Homo sapiens, UniProt Q9HAZ1); details: CLK4; 1000 nM
kinases (468) [25] = target: kinases (468) (Homo sapiens, UniProt P29597); details: compound concentration 1000 nM
kinases (468) (Homo sapiens, UniProt P29597), sequence (P29597 whole entry): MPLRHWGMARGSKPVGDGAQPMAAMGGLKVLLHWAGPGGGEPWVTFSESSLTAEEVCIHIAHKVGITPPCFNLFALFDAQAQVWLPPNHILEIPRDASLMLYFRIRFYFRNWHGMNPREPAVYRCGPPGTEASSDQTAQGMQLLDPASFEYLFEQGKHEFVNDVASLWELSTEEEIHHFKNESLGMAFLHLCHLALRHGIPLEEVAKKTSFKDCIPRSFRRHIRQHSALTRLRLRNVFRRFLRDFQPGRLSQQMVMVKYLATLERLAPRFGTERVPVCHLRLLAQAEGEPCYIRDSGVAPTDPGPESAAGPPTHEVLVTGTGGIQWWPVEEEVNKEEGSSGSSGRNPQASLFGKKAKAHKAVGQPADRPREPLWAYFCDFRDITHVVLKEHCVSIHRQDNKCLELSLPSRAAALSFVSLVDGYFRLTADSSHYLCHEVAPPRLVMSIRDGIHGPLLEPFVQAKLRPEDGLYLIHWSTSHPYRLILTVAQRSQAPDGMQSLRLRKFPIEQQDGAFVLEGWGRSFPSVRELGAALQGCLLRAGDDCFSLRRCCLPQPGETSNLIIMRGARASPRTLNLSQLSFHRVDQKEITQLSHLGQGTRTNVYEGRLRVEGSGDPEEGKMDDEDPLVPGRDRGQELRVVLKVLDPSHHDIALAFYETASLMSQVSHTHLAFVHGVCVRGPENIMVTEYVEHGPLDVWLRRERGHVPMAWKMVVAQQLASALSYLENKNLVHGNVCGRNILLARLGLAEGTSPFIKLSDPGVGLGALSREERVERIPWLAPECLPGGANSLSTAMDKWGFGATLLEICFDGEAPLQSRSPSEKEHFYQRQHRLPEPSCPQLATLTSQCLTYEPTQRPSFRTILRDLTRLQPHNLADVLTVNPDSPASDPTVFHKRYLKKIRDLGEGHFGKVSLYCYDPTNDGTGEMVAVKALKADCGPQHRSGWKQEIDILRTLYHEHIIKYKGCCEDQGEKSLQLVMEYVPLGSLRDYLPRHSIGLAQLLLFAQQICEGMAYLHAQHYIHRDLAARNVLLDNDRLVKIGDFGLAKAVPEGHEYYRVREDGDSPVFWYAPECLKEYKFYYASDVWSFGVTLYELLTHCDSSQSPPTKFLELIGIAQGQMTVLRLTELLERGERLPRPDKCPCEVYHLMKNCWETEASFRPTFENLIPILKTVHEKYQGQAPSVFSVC

kinases (468) [26] = target: kinases (468) (Homo sapiens, UniProt Q14012); details: CAMK1; 1000 nM
kinases (468) [27] = target: kinases (468) (Homo sapiens, UniProt Q9H4A3); details: kinase WNK1 (Entrez WNK1); compound concentration 1000 nM
kinases (468) [28] = target: kinases (468) (Homo sapiens, UniProt O75716); details: kinase STK16 (Entrez STK16); compound concentration 1000 nM
kinases (468) [29] = target: kinases (468) (Homo sapiens, UniProt P51813); details: BMX; 1000 nM
kinases (468) [30] = target: kinases (468) (Homo sapiens, UniProt P20794); details: MAK; 1000 nM
kinases (468) (Homo sapiens, UniProt P20794), sequence (P20794 whole entry): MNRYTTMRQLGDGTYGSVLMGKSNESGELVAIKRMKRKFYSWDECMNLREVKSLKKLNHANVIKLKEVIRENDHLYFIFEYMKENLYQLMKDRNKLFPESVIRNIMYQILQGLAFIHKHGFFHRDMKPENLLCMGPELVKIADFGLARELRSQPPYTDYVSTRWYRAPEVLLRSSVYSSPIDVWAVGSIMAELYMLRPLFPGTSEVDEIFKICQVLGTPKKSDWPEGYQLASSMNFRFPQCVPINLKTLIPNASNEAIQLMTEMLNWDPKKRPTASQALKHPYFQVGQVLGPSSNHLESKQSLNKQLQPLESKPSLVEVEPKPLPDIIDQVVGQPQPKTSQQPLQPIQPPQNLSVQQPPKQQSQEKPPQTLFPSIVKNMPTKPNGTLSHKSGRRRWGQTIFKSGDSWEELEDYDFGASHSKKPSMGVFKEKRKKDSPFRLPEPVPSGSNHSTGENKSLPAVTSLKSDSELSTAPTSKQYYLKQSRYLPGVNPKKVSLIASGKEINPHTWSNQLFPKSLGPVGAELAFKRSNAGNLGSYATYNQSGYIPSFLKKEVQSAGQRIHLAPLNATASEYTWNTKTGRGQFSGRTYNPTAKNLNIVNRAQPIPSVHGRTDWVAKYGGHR

kinases (468) [31] = target: kinases (468) (Homo sapiens, UniProt P23443); details: kinase S6K1 (Entrez RPS6KB1); compound concentration 1000 nM
kinases (468) (Homo sapiens, UniProt P23443), sequence (P23443 whole entry): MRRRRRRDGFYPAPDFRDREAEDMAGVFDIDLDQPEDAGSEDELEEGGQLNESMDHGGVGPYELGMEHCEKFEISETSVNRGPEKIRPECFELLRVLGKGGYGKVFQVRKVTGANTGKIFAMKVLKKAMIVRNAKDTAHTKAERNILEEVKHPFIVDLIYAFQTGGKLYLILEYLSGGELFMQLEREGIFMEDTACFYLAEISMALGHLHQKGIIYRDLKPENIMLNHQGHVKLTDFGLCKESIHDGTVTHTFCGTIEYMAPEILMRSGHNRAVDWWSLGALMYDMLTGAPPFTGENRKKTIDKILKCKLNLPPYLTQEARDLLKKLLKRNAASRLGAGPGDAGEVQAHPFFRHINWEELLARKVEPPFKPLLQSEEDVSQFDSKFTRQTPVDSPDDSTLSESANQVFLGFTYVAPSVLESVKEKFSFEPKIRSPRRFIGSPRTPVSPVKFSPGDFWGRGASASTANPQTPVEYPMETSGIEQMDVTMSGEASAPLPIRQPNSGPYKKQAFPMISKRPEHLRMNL

kinases (468) [32] = target: kinases (468) (Homo sapiens, UniProt P08069); details: IGF1R; 1000 nM
kinases (468) (Homo sapiens, UniProt P08069), sequence (P08069 31-1367): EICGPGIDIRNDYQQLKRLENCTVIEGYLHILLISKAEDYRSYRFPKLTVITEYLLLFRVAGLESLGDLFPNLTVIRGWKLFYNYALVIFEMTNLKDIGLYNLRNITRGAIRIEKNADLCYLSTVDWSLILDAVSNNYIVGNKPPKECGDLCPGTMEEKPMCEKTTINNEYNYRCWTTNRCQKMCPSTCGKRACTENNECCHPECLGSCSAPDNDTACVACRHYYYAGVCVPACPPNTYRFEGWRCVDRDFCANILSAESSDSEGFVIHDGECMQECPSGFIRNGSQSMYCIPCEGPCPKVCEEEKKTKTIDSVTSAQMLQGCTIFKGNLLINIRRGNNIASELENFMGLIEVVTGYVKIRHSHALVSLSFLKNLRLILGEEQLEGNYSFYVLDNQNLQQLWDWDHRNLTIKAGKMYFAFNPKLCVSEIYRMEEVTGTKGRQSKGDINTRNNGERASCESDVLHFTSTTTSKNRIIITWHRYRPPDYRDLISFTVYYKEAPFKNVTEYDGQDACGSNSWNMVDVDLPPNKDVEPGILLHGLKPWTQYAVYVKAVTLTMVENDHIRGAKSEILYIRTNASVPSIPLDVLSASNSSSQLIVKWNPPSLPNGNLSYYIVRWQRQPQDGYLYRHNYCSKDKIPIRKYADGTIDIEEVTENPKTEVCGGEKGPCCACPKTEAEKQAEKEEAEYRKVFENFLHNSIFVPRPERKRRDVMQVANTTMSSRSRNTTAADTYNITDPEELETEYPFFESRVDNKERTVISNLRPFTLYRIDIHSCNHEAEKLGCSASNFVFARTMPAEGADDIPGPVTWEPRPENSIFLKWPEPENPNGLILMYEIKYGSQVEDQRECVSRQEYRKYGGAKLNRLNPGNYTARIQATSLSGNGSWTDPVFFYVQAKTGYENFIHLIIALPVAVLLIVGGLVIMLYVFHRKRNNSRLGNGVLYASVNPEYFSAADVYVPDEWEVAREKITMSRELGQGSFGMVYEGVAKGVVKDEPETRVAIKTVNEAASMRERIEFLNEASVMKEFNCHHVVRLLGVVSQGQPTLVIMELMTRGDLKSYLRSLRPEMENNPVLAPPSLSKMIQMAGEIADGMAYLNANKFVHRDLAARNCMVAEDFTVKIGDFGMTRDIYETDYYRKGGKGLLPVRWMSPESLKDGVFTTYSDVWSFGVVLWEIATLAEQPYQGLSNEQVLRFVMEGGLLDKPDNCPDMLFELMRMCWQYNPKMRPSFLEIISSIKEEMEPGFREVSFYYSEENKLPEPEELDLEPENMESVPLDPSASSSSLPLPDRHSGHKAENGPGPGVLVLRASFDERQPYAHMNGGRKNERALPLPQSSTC

kinases (468) [33] = target: kinases (468) (Homo sapiens, UniProt Q9UQB9); details: AURKC; 1000 nM
kinases (468) (Homo sapiens, UniProt Q9UQB9), sequence (Q9UQB9 whole entry): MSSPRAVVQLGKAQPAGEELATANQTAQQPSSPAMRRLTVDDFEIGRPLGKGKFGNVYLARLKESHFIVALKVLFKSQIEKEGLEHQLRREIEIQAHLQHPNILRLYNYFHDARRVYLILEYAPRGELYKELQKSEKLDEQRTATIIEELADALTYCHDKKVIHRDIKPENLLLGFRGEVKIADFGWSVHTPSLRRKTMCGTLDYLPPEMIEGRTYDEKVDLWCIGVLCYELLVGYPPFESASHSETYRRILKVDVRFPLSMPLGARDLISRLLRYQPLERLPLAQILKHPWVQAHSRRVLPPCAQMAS

kinases (468) [34] = target: kinases (468) (Homo sapiens, UniProt P50613); details: CDK7; 1000 nM

C[C@H]1C[C@@H](O)CN(c2ncc(Cl)c(Nc3ccc4c(c3)c3c(c(=O)n4C)OCC(F)(F)[C@H](C4CC4)N3)n2)C1 [CCT373566_9A]
Percent Control (kinases (468) [1]): 100%
Percent Control (kinases (468) [2]): 100%
Percent Control (kinases (468) [3]): 89%
Percent Control (kinases (468) [4]): 90%
Percent Control (kinases (468) [5]): 79%
Percent Control (kinases (468) [6]): 100%
Percent Control (kinases (468) [7]): 85%
Percent Control (kinases (468) [8]): 100%
Percent Control (kinases (468) [9]): 89%
Percent Control (kinases (468) [10]): 100%
Percent Control (kinases (468) [11]): 98%
Percent Control (kinases (468) [12]): 95%
Percent Control (kinases (468) [13]): 99%
Percent Control (kinases (468) [14]): 100%
Percent Control (kinases (468) [15]): 97%
Percent Control (kinases (468) [16]): 92%
Percent Control (kinases (468) [17]): 98%
Percent Control (kinases (468) [18]): 98%
Percent Control (kinases (468) [19]): 91%
Percent Control (kinases (468) [20]): 96%
Percent Control (kinases (468) [21]): 100%
Percent Control (kinases (468) [22]): 86%
Percent Control (kinases (468) [23]): 98%
Percent Control (kinases (468) [24]): 91%
Percent Control (kinases (468) [25]; kinase TYK2(JH1domain-catalytic) (Entrez TYK2)): 97%
Percent Control (kinases (468) [25]; kinase TYK2(JH2domain-pseudokinase) (Entrez TYK2)): 89%
Percent Control (kinases (468) [26]): 89%
Percent Control (kinases (468) [27]): 100%
Percent Control (kinases (468) [28]): 88%
Percent Control (kinases (468) [29]): 100%
Percent Control (kinases (468) [30]): 93%
Percent Control (kinases (468) [31]): 85%
Percent Control (kinases (468) [32]): 100%
Percent Control (kinases (468) [33]): 100%
Percent Control (kinases (468) [34]): 93%
